Values after ≈ are worked out from the molar mass of the structure shown. Read-outs that look alike come from different tables or passages of the source.
Assays:
[1] = test system: Gram-negative bacteria; assay: Antibacterial activity against tested Gram-negative strains (summary in words); assay type: cell-based; settings: tested strains of Gram-negative bacteria
Method: (§1) General Methods. All solvents and reagents were obtained from commercial sources and used without further purification unless otherwise stated. General methods of purification of compounds involved the use column chromatography with silica gel (230-400 mesh) purchased from Silicycle, Quebec City, Canada. The reactions were monitored by TLC on precoated Merck 60 F254 silica gel plates and visualized using UV light (254 nm).
(§2) Antibacterial assays were performed using iron depleted media as described previously (J. Med. Chem. 2017, 60, 4577).

[2] = test system: β-lactamase producing strains of A. baumannii; assay: Antibacterial activity in combination with tazobactam; assay type: cell-based, Acinetobacter baumannii; settings: combinations with tazobactam
Method: as §1, §2

[3] = test system: Citrobacter freuendii ATCC 29063; assay: MIC antibacterial assay (iron depleted media); assay type: cell-based; settings: ATCC29063; Citrobacter freuendii ATCC 29063; MH2 broth with 160 μM bipyridyl added; read-out: MIC
Method: as §1, §2

[4] = test system: P. aeruginosa 01; assay: MIC antibacterial assay (iron depleted media); assay type: cell-based; settings: Pseudomonas aeruginosa; P. aeruginosa 01; MH2 broth with 160 μM bipyridyl added; read-out: MIC
Method: as §1, §2

[5] = test system: P. aeruginosa KW799/wt; assay: MIC antibacterial assay (iron depleted media); assay type: cell-based; settings: Pseudomonas aeruginosa; P. aeruginosa KW799/wt; MH2 broth with 160 μM bipyridyl added; read-out: MIC
Method: as §1, §2

[6] = test system: Salmonella typhimurium ATCC13311; assay: MIC antibacterial assay (iron depleted media); assay type: cell-based; settings: Salmonella enterica; Salmonella typhimurium ATCC13311; MH2 broth with 160 μM bipyridyl added; read-out: MIC
Method: as §1, §2

[7] = test system: A. baumannii ATCC17978-PNT-165; assay: MIC antibacterial assay (iron depleted media); assay type: cell-based; settings: Acinetobacter baumannii
Method: as §1, §2

[8] = test system: P. aeruginosa ARC 3502; assay: MIC antibacterial assay (iron depleted media); assay type: cell-based; settings: Pseudomonas aeruginosa
Method: as §1, §2

[9] = test system: Enterobacter aerogenes X816; assay: MIC antibacterial assay (iron depleted media); assay type: cell-based; settings: Klebsiella aerogenes; Enterobacter aerogenes X816; MH2 broth with 160 μM bipyridyl added; read-out: MIC
Method: as §1, §2

[10] = test system: Proteus mirabilis X235; assay: MIC antibacterial assay (iron depleted media); assay type: cell-based; settings: Proteus mirabilis X235; MH2 broth with 160 μM bipyridyl added; read-out: MIC
Method: as §1, §2

[11] = test system: P. aeruginosa ISR-14-004; assay: MIC antibacterial assay (iron depleted media); assay type: cell-based; settings: Pseudomonas aeruginosa, ISR14004, P. aeruginosa ISR-14-004 (clinical isolate)
Method: as §1, §2

[12] = test system: S. aureus SG 511; assay: MIC antibacterial assay (iron depleted media); assay type: cell-based; settings: Staphylococcus aureus, SG511; S. aureus SG 511; MH2 broth with 160 μM bipyridyl added; read-out: MIC
Method: as §1, §2

[13] = test system: A. baumannii ATCC BAA 1797; assay: MIC antibacterial assay (iron depleted media); assay type: cell-based; settings: Acinetobacter baumannii, BAA1797; A. baumannii ATCC BAA 1797; MH2 broth with 160 μM bipyridyl added; read-out: MIC
Method: as §1, §2

[14] = test system: P. aeruginosa ARC 3506; assay: MIC antibacterial assay (iron depleted media); assay type: cell-based; settings: Pseudomonas aeruginosa, ARC3506; P. aeruginosa ARC 3506; compound alone; MH2 broth with 160 μM bipyridyl added; read-out: MIC
Method: as §1, §2

[15] = test system: B. dolosa AU0018; assay: MIC antibacterial assay (iron depleted media); assay type: cell-based; settings: Burkholderia dolosa; B. dolosa AU0018; MH2 broth with 160 μM bipyridyl added; read-out: MIC
Method: as §1, §2

[16] = test system: P. aeruginosa ISR-14-003; assay: MIC antibacterial assay (iron depleted media); assay type: cell-based; settings: Pseudomonas aeruginosa, ISR14003, P. aeruginosa ISR-14-003 (clinical isolate)
Method: as §1, §2

[17] = test system: A. baumannii ATCC 17961; assay: MIC antibacterial assay (iron depleted media); assay type: cell-based; settings: Acinetobacter baumannii, ATCC17961; A. baumannii ATCC 17961; MH2 broth with 160 μM bipyridyl added; read-out: MIC
Method: as §1, §2

[18] = test system: E. coli DCO; assay: MIC antibacterial assay (iron depleted media); assay type: cell-based; settings: Escherichia coli; E. coli DCO; MH2 broth with 160 μM bipyridyl added; read-out: MIC
Method: as §1, §2

[19] = test system: strong β-lactamase producing strains of P. aeruginosa (ARC 3502 and ARC 3506); assay: Antibacterial activity, alone and in combination with tazobactam; assay type: cell-based; settings: co-administration with tazobactam
Method: as §1, §2

[20] = test system: A. baumannii ATCC BAA 1800; assay: MIC antibacterial assay (iron depleted media); assay type: cell-based, Acinetobacter baumannii; settings: Acinetobacter baumannii, BAA1800, MH2 broth with 160 μM bipyridyl added
Method: as §1, §2

[21] = test system: A.baumannii ISR14-005; assay: MIC antibacterial assay (iron depleted media); assay type: cell-based, Acinetobacter baumannii; settings: Acinetobacter baumannii, ISR14005, A. baumannii ISR14-005 (clinical isolate)
Method: as §1, §2

[22] = test system: A. baumannii ATCC 17978-PNT-320; assay: MIC antibacterial assay (iron depleted media); assay type: cell-based, Acinetobacter baumannii; settings: Acinetobacter baumannii, ATCC17978
Method: as §1, §2

[23] = compound alone, MH2 broth with 160 μM bipyridyl added, read-out: MIC
[24] = in combination with tazobactam, read-out: MIC (+tazo)

SMILES: CC(C)(O/N=C(\C(=O)NC1C(=O)N(S(=O)(=O)O)C1CSCCNC(=O)CN(CCCCNC(=O)c1cccc(O)c1O)C(=O)c1cccc(O)c1O)c1cnc(N)s1)C(=O)O (racemic) [Compound 42, (E)-2-(((1-(2-Aminothiazol-5-yl)-2-((2-(8-(2,3-dihydroxybenzoyl)-14-(2,3-dihydroxyphenyl)-6,14-dioxo-2-thia-5,8,13-triazatetradecyl)-4-oxo-1-sulfoazetidin-3-yl)amino)-2-oxoethylidene)amino)oxy)-2-methylpropanoic acid]
- antibacterial activity (in words) [1]: remarkably potent
- effect of combination with tazobactam on activity (in words) [2]: most enhancement of activity
- MIC [3]: 0.05 µM (≈ 0.0455 µg/mL)
- MIC [4]: 0.4 µM (≈ 0.364 µg/mL)
- MIC [5]: 0.4 µM (≈ 0.364 µg/mL)
- MIC [6]: 0.025 µM (≈ 0.0228 µg/mL)
- MIC [7]: 0.4 µM (≈ 0.364 µg/mL)
- MIC ([8]; ARC3502, compound alone, MH2 broth with 160 μM bipyridyl added, read-out: MIC): > 50 µM
- MIC ([8]; ARC3502, in combination with tazobactam, plus some growth at 50, clear between 1.6-50, read-out: MIC (+tazo)): 1.6 µM
- MIC [9]: 0.075 µM (≈ 0.0683 µg/mL)
- MIC [10]: < 0.025 µM
- MIC [11, 23]: 6 µM (≈ 5.47 µg/mL)
- MIC [11, 24]: 3 µM
- MIC [12]: > 50 µM
- MIC [13]: 0.4 µM (≈ 0.364 µg/mL)
- MIC [14]: > 50 µM
- MIC [15]: > 50 µM
- MIC [16, 23]: 1.6 µM (≈ 1.46 µg/mL)
- MIC [16, 24]: 1.6 µM
- MIC [17]: 0.2 µM (≈ 0.182 µg/mL)
- MIC [18]: < 0.025 µM
- effect of combination with tazobactam on activity (in words) [19]: most improved activity
- MIC [20]: 0.1 to 0.4 µM (≈ 0.0911 to 0.364 µg/mL)
- MIC [21, 23]: > 50 µM
- MIC [21, 24]: 25 µM
- MIC [22]: 0.4 µM (≈ 0.364 µg/mL)

From US11400079B2, “Antibacterial monobactams” (University of Notre Dame du Lac, priority 2017, dated 2022)
